pIC50: −log10 of the molar value.
target: T1, Lck kinase enzyme (Homo sapiens, UniProt P06239); experiment: LCK-Homogeneous Time Resolved Fluorescent (HTRF) Kinase Assay; type: biochemical; settings: read-out: average IC50 value for the inhibition of the Lck kinase enzyme
T1 construct: LCK KD GST (225-509); GST
Protocol: LCK-Homogeneous Time Resolved Fluorescent (HTRF) Kinase Assay:
The LCK HTRF assay begins with LCK in the presence of ATP phosphorylating the biotinylated peptide Gastrin. The reaction incubates for 90 min. To quench the assay detection reagents are added which both stop the reaction by diluting out the enzyme and chelating the metals due to the presence of EDTA. Once the detection reagents are added the assay incubates for 30 min to allow for equilibration of the detection reagents. […] Buffer conditions are as follows: 50 mM HEPES pH 7.5, 50 mM NaCl, 20 mM MgCl, 5 mM MnCl, 2 mM DTT, 0.05% BSA.
The assay is quenched and stopped with 160 μL of detection reagent. Detection reagents are as follows: Buffer made of 50 mM Tris, pH 7.5, 100 mM NaCl, 3 mM EDTA, 0.05% BSA, 0.1% Tween20.
The assay plate is read in either a Discovery or a RubyStar.

T1 sequence (P06239 225-509): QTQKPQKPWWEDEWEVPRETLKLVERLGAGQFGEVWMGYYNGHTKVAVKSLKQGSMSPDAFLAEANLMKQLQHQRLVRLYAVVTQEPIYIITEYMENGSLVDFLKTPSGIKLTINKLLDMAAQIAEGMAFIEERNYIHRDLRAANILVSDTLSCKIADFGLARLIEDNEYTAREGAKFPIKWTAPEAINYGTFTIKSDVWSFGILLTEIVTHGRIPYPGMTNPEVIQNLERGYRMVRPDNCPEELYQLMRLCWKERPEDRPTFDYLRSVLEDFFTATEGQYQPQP

Row | pIC50 | Structure (SMILES)
1 | ≥ 5.00 | Cc1ccc(NC(=O)c2cc3ccccc3n2C)cc1C(=O)Nc1cnc(Nc2ccc(N3CCN(C)CC3)cc2)nc1 [Example 96, 1-methyl-N-(4-methyl-3-((2-(4-(4-methylpiperazin-1-yl)phenylamino)pyrimidin-5-yl)carbamoyl)phenyl)-1H-indole-2-carboxamide]
2 | ≥ 5.00 | Cc1ccc(NC(=O)Nc2cccc(C(F)(F)F)c2)cc1C(=O)Nc1cncnc1 [Example 88, 1-(4-methyl-3-(pyrimidin-5-ylcarbamoyl)phenyl)-3-(3-(trifluoromethyl)phenyl)urea]

target: T2, c-kit kinase enzyme (Homo sapiens, UniProt P10721); experiment: cKIT-Homogeneous Time Resolved Fluorescent (HTRF) Kinase Assay; type: biochemical; settings: read-out: average IC50 value for the inhibition of the c-kit kinase enzyme
T2 construct: cKIT (6.25 μM) (catalytic domain, N-terminal GST tagged, unphosphorylated)
Protocol: cKIT-Homogeneous Time Resolved Fluorescent (HTRF) Kinase Assay:
The purpose of this assay is to measure the inhibition of cKIT enzyme activity (autophosphorylation and phosphorylation of substrate) by small molecule test compounds. The cKIT HTRF assay begins with cKIT-catalyzed phosphorylation of biotinylated peptide Her-2 (N-[…]-C) in the presence of ATP. The cKIT enzyme reaction is comprised of 1 μL of compound in 100% DMSO, 15 μL of 2× substrate mix (50 μM ATP and 2 μM biotinylated Her-2) and 15 μL of 2× cKIT (6.25 μM) (catalytic domain, N-terminal GST tagged, unphosphorylated) in 4 mM DTT all diluted in enzyme buffer (25 mM HEPES pH 7.5, 12.5 mM NaCl, 50 mM MgCl, 0.05% BSA). The reaction incubates for 90 min at room temperature. One-hundred and sixty microliters of detection mixture containing 0.47 μg/mL steptavidin allophycocyanin and 29.7 pM europylated anti-phosphotyrosine Ab (PT66, Perkin Elmer) in HTRF buffer (100 mM Hepes pH 7.5, 100 mM NaCl, 0.1% BSA, 0.05% Tween 20) is then added to stop the reaction by diluting out the enzyme as well as to enable quantitation of phosphorylated Her-2. After 3 h at room temperature, the detection reaction is read in a Packard Discovery™ (model BD1000) plate reader. The wells are excited with coherent […] light and the ratio of delayed ([…] post excitation) emissions at […] (native europium fluorescence) and 665 nm (europium fluorescence transferred to allophycocyanin—an index of substrate phosphorylation) is determined. The proportion of substrate phosphorylated in the kinase reaction in the presence of compound compared with that phosphorylated in the presence of DMSO vehicle alone (HI control) is calculated using the formula: % control (POC)=(cpd−average LO)/(average HI−average LO)*100. Data (consisting of POC and inhibitor concentration in μM) is fitted to a 4-parameter equation (y=A+((B−A)/(1+((x/C)^D))), where A is the minimum y (POC) value, B is the maximum y (POC), C is the x (cpd concentration) at the point of inflection and D is the slope factor) using a Levenburg-Marquardt non-linear regression algorithm.

T2 sequence (P10721 589-937 limits assumed): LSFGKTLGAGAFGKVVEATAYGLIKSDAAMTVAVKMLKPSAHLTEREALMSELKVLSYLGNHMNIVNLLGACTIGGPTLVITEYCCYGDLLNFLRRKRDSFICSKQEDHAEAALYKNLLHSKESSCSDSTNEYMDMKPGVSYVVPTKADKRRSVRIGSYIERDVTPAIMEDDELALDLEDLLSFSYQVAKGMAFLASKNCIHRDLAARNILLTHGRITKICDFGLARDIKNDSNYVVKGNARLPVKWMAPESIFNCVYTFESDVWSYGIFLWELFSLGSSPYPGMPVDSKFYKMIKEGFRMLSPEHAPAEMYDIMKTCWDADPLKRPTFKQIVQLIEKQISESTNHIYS

Row | pIC50 | Structure (SMILES)
3 | ≥ 5.00 | Cc1ccc(NC(=O)c2csc(-c3cccs3)n2)cc1C(=O)Nc1cnc(Nc2ccc(N3CCN(C)CC3)cc2)nc1 [Example 141]
4 | ≥ 5.00 | Cc1ccc(NC(=O)c2ccc3ncsc3c2)cc1C(=O)Nc1cnc(N)nc1 [Example 109, N-(3-((2-aminopyrimidin-5-yl)carbamoyl)-4-methylphenyl)benzo[d] thiazole-6-carboxamide]
5 | ≥ 5.00 | Cc1ccc(NC(=O)c2cccc(C(F)(F)F)c2)cc1C(=O)Nc1cnc(N)nc1 [Example 1, N-(2-amino-5-pyrimidinyl)-2-methyl-5-(((3-(trifluoromethyl)phenyl)carbonyl)amino)benzamide]
6 | ≥ 5.00 | Cc1ccc(NC(=O)c2cccc(C(F)(F)F)c2)cc1C(=O)Nc1cnc(NCCN2CCOCC2)nc1 [Example 2]
7 | ≥ 5.00 | Cc1ccc(NC(=O)Nc2cccc(C(F)(F)F)c2)cc1C(=O)Nc1cnc(N)nc1 [Example 90, N-(2-amino-5-pyrimidinyl)-2-methyl-5-((((3-(trifluoromethyl)phenyl)amino)carbonyl)amino)benzamide]
8 | ≥ 5.00 | Cc1ccc(NC(=O)c2cc3ccccc3n2C)cc1C(=O)Nc1cnc(Nc2ccc(N3CCN(C)CC3)cc2)nc1 [Example 96, 1-methyl-N-(4-methyl-3-((2-(4-(4-methylpiperazin-1-yl)phenylamino)pyrimidin-5-yl)carbamoyl)phenyl)-1H-indole-2-carboxamide]
9 | ≥ 5.00 | Cc1ccc(NC(=O)c2cc(I)ccc2O)cc1C(=O)Nc1cnc(Nc2ccc(N3CCN(C)CC3)cc2)nc1 [Example 112, 2-hydroxy-5-iodo-N-(4-methyl-3-(((2-((4-(4-methyl-1-piperazinyl)phenyl)amino)-5-pyrimidinyl)amino)carbonyl)phenyl) benzamide]
10 | ≥ 5.00 | Cc1ccc(NC(=O)c2ccc3[nH]ccc3c2)cc1C(=O)Nc1cnc(N)nc1 [Example 110, N-(3-((2-aminopyrimidin-5-yl)carbamoyl)-4-methylphenyl)-1H-indole-5-carboxamide]
11 | ≥ 5.00 | Cc1ccc(NC(=O)Nc2cccc(C(F)(F)F)c2)cc1C(=O)Nc1cncnc1 [Example 88, 1-(4-methyl-3-(pyrimidin-5-ylcarbamoyl)phenyl)-3-(3-(trifluoromethyl)phenyl)urea]
12 | ≥ 5.00 | Cc1ccc(C(=O)NCCC2CCCC2)cc1C(=O)Nc1ccc(NC(=O)c2c[nH]cn2)nc1 [Example 206, N~1~-(2-cyclopentylethyl)-N~3~-(6-((1H-imidazol-4-ylcarbonyl)amino)-3-pyridinyl)-4-methyl-1,3-benzenedicarboxamide]
13 | ≥ 5.00 | Cc1ccc(C(=O)NCCC2CCCCC2)cc1C(=O)Nc1ccc(N)nc1 [Example 182, N~3~-(6-amino-3-pyridinyl)-N~1~-(2-cyclohexylethyl)-4-methyl-1,3-benzenedicarboxamide]
14 | ≥ 5.00 | Cc1ccc(NC(=O)c2ccc(Cl)c(C(F)(F)F)c2)cc1C(=O)Nc1cnc(Nc2ccc(N3CCN(C)CC3)cc2)nc1 [Example 113, 4-chloro-N-(4-methyl-3-(((2-((4-(4-methyl-1-piperazinyl)phenyl)amino)-5-pyrimidinyl)amino)carbonyl)phenyl)-3-(trifluoromethyl) benzamide]
